The compounds below were run on Palmitoyl CoA oxidation in rat heart mitochondria (assay: Mitochondrial assay: Palmitoyl CoA oxidation). Conditions: 16 microM 1-C14 palmitoyl CoA, 15 min at 30° C., read-out: Effect of Compounds of the Invention on Palmitoyl CoA Oxidation (IC50).
Format: biochemical
Procedure: Rat heart mitochondria were isolated by the method of Nedergard and Cannon (Methods in Enzymol. 55, 3, 1979).
Palmitoyl CoA oxidation—The Palmitoyl CoA oxidation was carried out in a total volume of 100 micro liters containing the following agents: 110 mM KCl, 33 mM Tris buffer at pH 8, 2 mM KPi, 2 mM MgCl2, 0.1 mM EDTA, 14.7 microM defatted BSA, 0.5 mM malic acid, 13 mM carnitine, 1 mM ADP, 52 micrograms of mitochondrial protein, and 16 microM 1-C14 palmitoyl CoA (Sp. Activity 60 mCi/mmole; 20 microCi/ml, using 5 microliters per assay). The compounds of this invention were added in a DMSO solution at the following concentrations: 100 micro molar, 30 micro molar, and 3 micro molar. In each assay, a DMSO control was used. After 15 min at 30° C., the enzymatic reaction was centrifuged (20,000 g for 1 min), and 70 microliters of the supernatant was added to an activated reverse phase silicic acid column (approximately 0.5 ml of silicic acid). The column was eluted with 2 ml of water, and 0.5 ml of the eluent was used for scintillation counting to determine the amount of C^14 trapped as C^14 bicarbonate ion.

Compound | IC50 [nM]
Cc1nc2cc(OC[C@H](O)CN3CCN(Cc4nc5cc(-c6ccccc6)ccc5o4)CC3)ccc2s1 [(2R)-3-(2-methylbenzothiazol-5-yloxy)-1-{4-[(5-phenylbenzoxazol-2-yl)methyl]piperazinyl}propan-2-ol] | 3600
(2R)-1-(4-{[3-(2-chlorophenyl)(1,2,4-oxadiazol-5-yl)]methyl}piperazinyl)-3-(2-methylbenzothiazol-5-yloxy)propan-2-ol | 1340
(2R)-1-(4-{[3-(2-fluorophenyl)(1,2,4-oxadiazol-5-yl)]methyl}piperazinyl)-3-(2-methylbenzothiazol-5-yloxy)propan-2-ol | 5700
(2R)-1-(4-{[5-(2-chlorophenyl)(1,2,4-oxadiazol-3-yl)]methyl}piperazinyl)-3-(2-methylbenzothiazol-5-yloxy)propan-2-ol | 1140
(2R)-1-(4-{[5-(2-chlorophenyl)(1,3,4-oxadiazol-2-yl)]methyl}piperazinyl)-3-(2-methylbenzothiazol-5-yloxy)propan-2-ol | 2100
(2R)-1-(4-{[5-(4-chlorophenyl)(1,3,4-oxadiazol-2-yl)]methyl}piperazinyl)-3-(2-methylbenzothiazol-5-yloxy)propan-2-ol | 8500
(2R)-1-(4-{[5-(4-methoxyphenyl)(1,3,4-oxadiazol-2-yl)]methyl}piperazinyl)-3-(2-methylbenzothiazol-5-yloxy)propan-2-ol | 8900
(2R)-1-((2S)-2-methyl-4-{[5-(4-phenylphenyl)(1,3,4-oxadiazol-2-yl)]methyl}piperazinyl)-3-(2-methylbenzothiazol-5-yloxy)propan-2-ol | 1180
(2R)-1-[(2S)-4-({5-[4-(dimethylamino)phenyl](1,3,4-oxadiazol-2-yl)}methyl)-2-methylpiperazinyl]-3-(2-methylbenzothiazol-5-yloxy)propan-2-ol | 1480
(2R)-1-[(3S)-3-methyl-4-({5-[4-(trifluoromethyl)phenyl](1,2,4-oxadiazol-3-yl)}methyl)piperazinyl]-3-(2-methylbenzothiazol-5-yloxy)propan-2-ol | 4700
(2R)-1-{(2S)-2-methyl-4-[(5-(2-naphthyl)(1,3,4-oxadiazol-2-yl))methyl]piperazinyl}-3-(2-methylbenzothiazol-5-yloxy)propan-2-ol | 1150
(2R)-1-{(2S)-2-methyl-4-[(5-phenyl(1,3,4-oxadiazol-2-yl))methyl]piperazinyl}-3-(2-methylbenzothiazol-5-yloxy)propan-2-ol | 1570
(2R)-3-(2-methylbenzothiazol-5-yloxy)-1-(4-{[5-(2-methylphenyl)(1,2,4-oxadiazol-3-yl)]methyl}piperazinyl)propan-2-ol | 1170
(2R)-3-(2-methylbenzothiazol-5-yloxy)-1-(4-{[5-(4-methylphenyl)(1,3,4-oxadiazol-2-yl)]methyl}piperazinyl)propan-2-ol | 10700
(2R)-3-(2-methylbenzothiazol-5-yloxy)-1-[4-({5-[3-(trifluoromethyl)phenyl](1,3,4-oxadiazol-2-yl)}methyl)piperazinyl]propan-2-ol | 6300
(2R)-3-(2-methylbenzothiazol-5-yloxy)-1-[4-({5-[4-(trifluoromethyl)phenyl](1,3,4-oxadiazol-2-yl)}methyl)piperazinyl]propan-2-ol | 4800
(2R)-3-(2-methylbenzothiazol-5-yloxy)-1-{4-[(2-phenyl(1,3-thiazol-4-yl))methyl]piperazinyl}propan-2-ol | 2700
(2R)-3-((2S)-4-{[5-(4-methoxyphenyl)(1,3,4-oxadiazol-2-yl)]methyl}-2-methylpiperazinyl)-1-(2-methylbenzothiazol-5-yloxy)propan-2-ol | 1240

More lines, now with the values ahead:

IC50 [nM] | Compound
440 | 3-{(2R)-2-methyl-4-[(5-phenylisoxazol-3-yl)methyl]piperazinyl}(2S)-1-(2-methylbenzothiazol-5-yloxy)propan-2-ol
100 | Cc1nc2cc(OC[C@H](O)CN3CCN(Cc4nc(-c5ccc(Cl)cc5Cl)no4)C[C@@H]3C)ccc2s1 [(2R)-1-((2S)-4-{[3-(2,4-dichlorophenyl)(1,2,4-oxadiazol-5-yl)]methyl}-2-methylpiperazinyl)-3-(2-methylbenzothiazol-5-yloxy)propan-2-ol]
530 | Cc1nc2cc(OC[C@H](O)CN3CCN(Cc4nnc(-c5ccc(C(F)(F)F)cc5)o4)C[C@@H]3C)ccc2s1 [(2R)-1-[(2S)-2-methyl-4-({5-[4-(trifluoromethyl)phenyl](1,3,4-oxadiazol-2-yl)}methyl)piperazinyl]-3-(2-methylbenzothiazol-5-yloxy)propan-2-ol]
140 | Cc1nc2cc(OC[C@H](O)CN3CCN(Cc4cc(-c5ccc(Cl)cc5)on4)C[C@@H]3C)ccc2s1 [(2R)-3-[(2S)-2-methyl-4-({5-[4-chlorophenyl]isoxazol-3-yl}methyl)piperazinyl]-1-(2-methylbenzothiazol-5-yloxy)propan-2-ol]
1140 | (2R)-1-(4-{[3-(2,4-dichlorophenyl)(1,2,4-oxadiazol-5-yl)]methyl}piperazinyl)-3-(2-methylbenzothiazol-5-yloxy)propan-2-ol
540 | (2R)-1-((2S)-2-methyl-4-{[5-(4-methylphenyl)(1,3,4-oxadiazol-2-yl)]methyl}piperazinyl)-3-(2-methylbenzothiazol-5-yloxy)propan-2-ol
690 | (2R)-1-((2S)-4-{[5-(4-chlorophenyl)(1,3,4-oxadiazol-2-yl)]methyl}-2-methylpiperazinyl)-3-(2-methylbenzothiazol-5-yloxy)propan-2-ol
410 | (2R)-1-((3S)-4-{[2-(4-chlorophenyl)(1,3-thiazol-4-yl)]methyl}-3-methylpiperazinyl)-3-(2-methylbenzothiazol-5-yloxy)propan-2-ol
680 | (2R)-1-((3S)-4-{[5-(2,4-dichlorophenyl)(1,2,4-oxadiazol-3-yl)]methyl}-3-methylpiperazinyl)-3-(2-methylbenzothiazol-5-yloxy)propan-2-ol
1100 | (2R)-1-[4-({5-[4-(tert-butyl)phenyl](1,3,4-oxadiazol-2-yl)}methyl)piperazinyl]-3-(2-methylbenzothiazol-5-yloxy)propan-2-ol
1050 | (2R)-1-[(2S)-2-methyl-4-({5-[3-(trifluoromethyl)phenyl](1,3,4-oxadiazol-2-yl)}methyl)piperazinyl]-3-(2-methylbenzothiazol-5-yloxy)propan-2-ol
390 | (2R)-1-[(2S)-4-({5-[4-(tert-butyl)phenyl](1,3,4-oxadiazol-2-yl)}methyl)-2-methylpiperazinyl]-3-(2-methylbenzothiazol-5-yloxy)propan-2-ol
210 | (2R)-1-[(3S)-3-methyl-4-({2-[4-(trifluoromethyl)phenyl](1,3-thiazol-4-yl)}methyl)piperazinyl]-3-(2-methylbenzothiazol-5-yloxy)propan-2-ol
340 | (2R)-1-{(3S)-3-methyl-4-[(2-phenyl(1,3-thiazol-4-yl))methyl]piperazinyl}-3-(2-methylbenzothiazol-5-yloxy)propan-2-ol
230 | (2R)-3-(2-methylbenzothiazol-5-yloxy)-1-(4-{[3-(2-methylphenyl)(1,2,4-oxadiazol-5-yl)]methyl}piperazinyl)propan-2-ol
990 | (2R)-3-(2-methylbenzothiazol-5-yloxy)-1-(4-{[5-(4-phenylphenyl)(1,3,4-oxadiazol-2-yl)]methyl}piperazinyl)propan-2-ol
1100 | (2R)-3-(2-methylbenzothiazol-5-yloxy)-1-{4-[(5-phenyl(1,3,4-oxadiazol-2-yl))methyl]piperazinyl}propan-2-ol
340 | (2R)-3-((2S)-4-{[5-(2-chlorophenyl)(1,3,4-oxadiazol-2-yl)]methyl}-2-methylpiperazinyl)-1-(2-methylbenzothiazol-5-yloxy)propan-2-ol
730 | (2R)-3-((2S)-4-{[5-(3,4-dichlorophenyl)isoxazol-3-yl]methyl}-2-methylpiperazinyl)-1-(2-methylbenzothiazol-5-yloxy)propan-2-ol
970 | (2R)-3-((3S)-3-methyl-4-{[5-(4-phenylphenyl)isoxazol-3-yl]methyl}piperazinyl)-1-(2-methylbenzothiazol-5-yloxy)propan-2-ol
250 | (2R)-3-((3S)-3-methyl-4-{[5-(4-trifluoromethylphenyl)isoxazol-3-yl]methyl}-piperazinyl)-1-(2-methylbenzothiazol-5-yloxy)propan-2-ol
370 | (2R)-3-[(2S)-2-methyl-4-({2-[4-(trifluoromethyl)phenyl](1,3-oxazol-5-yl)}methyl)piperazinyl]-1-(2-methylbenzothiazol-5-yloxy)propan-2-ol
600 | (2R)-3-[(2S)-2-methyl-4-({5-[2-chlorophenyl]isoxazol-3-yl}methyl)piperazinyl]-1-(2-methylbenzothiazol-5-yloxy)propan-2-ol

Same assay, conditions: at 30 uM

Compound | Effect on Palmitoyl CoA Oxidation, % at 30 uM [% at 30 uM]
(2R)-3-(2-methylbenzothiazol-5-yloxy)-1-[4-({5-[3-(trifluoromethyl)phenyl](1,2,4-oxadiazol-3-yl)}methyl)piperazinyl]propan-2-ol | 58

— patent US7056924B2, “Substituted heterocyclic compounds” (CV Therapeutics, Inc., priority 2002, dated 2006)
